Source: PubChem BioAssay (NCI)
Values joined by “and” are separate entries in the source; they are usually repeats but may differ in a detail not shown here. Equal values may be shown once.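 Assay format: 96-well plates, 48-hour exposure. Abbreviation: GI50, concentration required for 50% inhibition of growth. TGI is the concentration that stops growth completely.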

Assays:
Test in all cases: NCI tumour cell line growth inhibition, 48 h
SNB-78 CNS = test system: SNB-78 CNS
DMS 273 small cell lung = test system: DMS 273 small cell lung
HOP-18 NSCLC = test system: HOP-18 NSCLC
DLD-1 colon = test system: DLD-1 colon
DMS 114 small cell lung = test system: DMS 114 small cell lung
LXFL 529 NSCLC = test system: LXFL 529 NSCLC
KM20L2 colon = test system: KM20L2 colon
MDA-N = test system: MDA-N
RXF-631 renal = test system: RXF-631 renal
SN12K1 renal = test system: SN12K1 renal
P388 leukemia = test system: P388 leukemia

SMILES | TGI (SNB-78 CNS) [µM] | TGI (DMS 273 small cell lung) [µM] | TGI (HOP-18 NSCLC) [µM] | TGI (DLD-1 colon) [µM] | TGI (DMS 114 small cell lung) [µM] | TGI (LXFL 529 NSCLC) [µM] | TGI (KM20L2 colon) [µM] | TGI (MDA-N) | TGI (RXF-631 renal) [µM] | also measured
COc1ccc(C=O)cc1O[Si](C)(C)C(C)(C)C | > 100 | > 100 | > 100 | > 100 | > 100 | > 100 | > 100 | – | – | –
COC(=O)C(=O)CC(=O)CCn1[nH]c(=O)c(Cl)c(Cl)c1=O | > 100 | > 100 | – | > 100 | > 100 | > 100 | > 100 | – | – | –
O=C(O)CCCc1ccc2ccc3ccccc3c2c1 | – | – | – | – | – | – | – | > 100 µM | – | –
O=C1N/C(=C\[N+](=O)[O-])c2ccccc21 | > 100 | > 100 | > 100 | > 100 | > 100 | > 100 | > 100 | – | > 100 | –
CNC(=O)OCc1nc(SSC(C)(C)C)n(C)c1COC(=O)NC | 21.2 | 17.3 | 10.8 | 3.18 | 4.15 | 2.74 | 25.6 | 6.59 µM | 3.42 | TGI (SN12K1 renal): 14.9 µM; TGI (P388 leukemia): > 100 µM
CCC[CH2][Sn]([CH2]CCC)([O]C(=O)CN)[O]C(=O)CN | 72 | > 100 | – | > 100 | 46.5 | 26 | > 100 | – | – | GI50 (SNB-78 CNS): 21.6 µM; GI50 (DMS 273 small cell lung): 38.6 µM; GI50 (DLD-1 colon): 92.7 µM; GI50 (DMS 114 small cell lung): 17.9 µM; GI50 (LXFL 529 NSCLC): 11.4 µM; GI50 (KM20L2 colon): 63.6 µM
O=C1C(=O)c2ccccc2C(O)=C1C(C1=C(O)c2ccccc2C(=O)C1=O)c1ccc(Cl)cc1 | – | – | – | – | – | – | – | 3.74 µM | – | –
COc1cc(NCC(C#N)C#N)ccc1N=Nc1ccc(Cl)cc1 | 98.8 | 41.4 | 39.7 | 85.4 | 48.2 | 51.7 | 29.3 | – | > 100 | –
COc1cc(NS(=O)(=O)c2ccc(C)cc2)c2nccnc2c1 | – | > 100 | > 100 | > 100 | 40.8 | > 100 | > 100 | – | – | –
O=C1C=C(Nc2ccccc2C(=O)CC(=O)C(=O)Nc2cccc([N+](=O)[O-])c2)c2ccccc2C1=O | > 100 | > 100 | – | > 100 | 84.9 | > 100 | > 100 | – | > 100 | –
COc1ccc([C@@]2(O)c3c(ccc(O)c3OC)[C@H]2OC)c(OC)c1 | – | – | – | > 100 | 75.9 | > 100 | > 100 | – | – | –
CC(=O)C1C(c2ccccc2)C2(C)OC(=O)C(C#N)C12C (configuration not stated) | > 100 | > 100 | > 100 | > 100 | > 100 | > 100 | > 100 | – | – | –
N#C/C(=C/c1cccc(Oc2ccccc2)c1)c1ccccc1 | > 100 | – | > 100 | > 100 | > 100 | > 100 | – | – | – | –
Cc1ccc(S(=O)(=O)N=Nc2c(O)[nH]c3cc(O)c(C(=O)O)cc23)cc1 | – | – | – | – | – | – | – | > 100 µM | – | –
C=C(C)C1CC2(C)C(C)CC(O)CC2C(OC(=O)C=C(C)C)C1O (configuration not stated) | – | – | – | – | – | – | – | > 100 µM | – | –
O=NNc1ccc2ccccc2n1 | – | – | – | – | – | – | – | > 100 µM | – | –
CCOC(=O)[CH-]C(=O)C12CC3CC(CC(C3)C1)C2.CCOC(=O)[CH-]C(=O)C12CC3CC(CC(C3)C1)C2.CC[O-].CC[O-].[Ti+4] | > 100 | > 100 | > 100 | > 100 | > 100 | > 100 | > 100 | – | > 100 | GI50 (SNB-78 CNS): > 100 µM; GI50 (DMS 273 small cell lung): > 100 µM; GI50 (HOP-18 NSCLC): > 100 µM; GI50 (RXF-631 renal): > 100 µM; GI50 (DLD-1 colon): > 100 µM; GI50 (DMS 114 small cell lung): > 100 µM; GI50 (LXFL 529 NSCLC): > 100 µM; GI50 (KM20L2 colon): > 100 µM
CCCCCCCCCCCCCCCCCCOC[C@H](COP(=O)(O)O[C@H]1[C@H](O)[C@@H](O)[C@H](O)C[C@H]1O)OC | – | – | – | – | – | – | – | > 100 µM and 25.4 µM | – | GI50 (MDA-N): 64.1 µM and 12 µM
O=S(=O)(C1=CC(S(=O)(=O)c2ccccc2)CN(Cc2ccccc2)C1c1cccc2ccccc12)c1ccccc1 (configuration not stated) | > 69 | > 69 | – | > 69 | > 69 | – | > 69 | – | > 69 | –
CNC(=O)OCc1c(COC(=O)NC)c(-c2ccc(-c3ccccc3)cc2)n(C)c1C | – | – | – | – | – | – | – | 18.5 µM | – | –
CC(=O)Oc1cc2c(cc1OC(C)=O)C1(C)CCC2(C)c2cc(OC(C)=O)c(OC(C)=O)cc21 | > 100 | > 100 | – | > 100 | – | 19.6 | 79.5 | – | > 100 | –
CCCC1(CC(=O)O)OCCc2c1[nH]c1ccccc21 (configuration not stated) | > 100 | > 100 | > 100 | > 100 | > 100 | > 100 | > 100 | – | – | –
O=C(Nc1cccc(O)c1)C(=O)C1C(=O)NC(=S)NC1=O | > 100 | > 100 | > 100 | > 100 | > 100 | > 100 | > 100 | – | – | –

SMILES | TGI (SNB-78 CNS) [µM] | TGI (DMS 273 small cell lung) [µM] | TGI (HOP-18 NSCLC) [µM] | TGI (DLD-1 colon) [µM] | TGI (DMS 114 small cell lung) [µM] | TGI (LXFL 529 NSCLC) [µM] | TGI (KM20L2 colon) [µM] | TGI (MDA-N) | TGI (RXF-631 renal) [µM] | also measured
CN(C)CCC(=O)N1C/C(=C\c2ccc(Cl)c(Cl)c2)C(=O)/C(=C/c2ccc(Cl)c(Cl)c2)C1 | 1.66 | 0.316 | 2.3 | 0.468 | – | 0.637 | 1.59 | 0.84 µM | – | –
COCCOC(=O)C1=C(O)c2ccccc2S(=O)(=O)N1C | – | – | – | – | – | – | – | > 100 µM | – | –
C[C@]12CC=CC(=O)[C@@]1(C)CCC(=O)C2 | > 100 | > 100 | – | > 100 | > 100 | > 100 | – | – | > 100 | –
Cc1ccc(S(=O)(=O)N/N=C2\CCCCC23CCC(=O)NC3)cc1 (configuration not stated) | > 100 | > 100 | > 100 | > 100 | > 100 | > 100 | > 100 | – | > 100 | –
CN(C)Cc1cc(C(F)(F)F)ccc1C(O)(c1ccccc1)c1ccccc1 | – | – | – | – | – | – | – | 33.7 µM | – | –
O=C(NC(=O)c1c(F)cccc1F)Nc1cccc(Oc2ncc(Cl)cn2)c1 | > 100 | > 100 | > 100 | > 100 | > 100 | > 100 | – | > 22.7 µM | > 100 | –
N#CCC(=O)N/N=C1/C(=O)N(c2ccc(Cl)cc2)C(=O)C(=O)C1c1nc2ccccc2s1 (configuration not stated) | > 100 | > 100 | – | > 100 | > 100 | > 100 | > 100 | – | – | –
CCCCCCCCCCCC(=O)OCCOCCOCCOCCOCCOC(=O)CCCCCCCCCCC | > 100 | > 100 | > 100 | > 100 | > 100 | > 100 | > 100 | – | > 100 | –
CC(=O)c1ccc(NC(=O)/C(CC(=O)c2sc(-c3cccnc3)nc2C)=N/NC(N)=O)cc1 | > 100 | – | – | – | > 100 | > 100 | > 100 | – | – | –
N[C@H](C(=O)O)[C@@H]1CC(Cl)=NO1 | > 978 | 328 | > 1000 | > 1000 | 258 | – | > 1000 | > 1000 µM | – | TGI (SN12K1 renal): > 1000 µM; GI50 (MDA-N): 57.2 µM; TGI (P388 leukemia): 16 µM
NCCCNCCS | > 100 | > 100 | > 100 | – | – | > 100 | > 100 | > 100 µM | > 100 | –
Cc1ccc(S(=O)(=O)OC2CC=CC2)cc1 | > 100 | > 100 | > 100 | > 100 | > 100 | > 100 | > 100 | – | – | –
CC(C)(C)c1cc([N+](=O)[O-])cc([N+](=O)[O-])c1O | – | – | – | – | – | – | – | > 10 µM | – | –
NC(CCCC(N)P(=O)(O)O)P(=O)(O)O (configuration not stated) | > 100 | > 100 | > 100 | > 100 | > 100 | > 100 | – | – | > 100 | –
Nc1ncnc2c1ncn2C1C=C(CO)C(O)C1O (configuration not stated) | > 100 | 28.3 | > 100 | > 100 | 69.2 | > 100 | > 100 | > 100 µM | 30 | –
Cc1cc(N(CC(C)Br)CC(C)Br)ccc1N=Nc1ccccc1C(=O)O (configuration not stated) | 40.2 | 20.5 | 8.29 | 16.6 | 11.1 | – | 24.2 | 20.5 µM | – | –
COc1ccc(C(C#N)NC23CC4CC(CC(C4)C2)C3)cc1 (configuration not stated) | – | – | – | – | – | – | – | > 100 µM | – | –
C=CC[P@]1(=O)O[C@H](c2ccccc2)[C@H](C)N1C | > 100 | > 100 | > 100 | > 100 | > 100 | > 100 | – | – | – | –
O=C(O)CSCCc1ccccc1 | – | – | – | – | – | – | – | > 100 µM | – | –
NC1=NN(c2ccccc2)C(=O)C1C(=O)CCC(=O)Nc1cccc(Cl)c1 (configuration not stated) | > 100 | > 100 | > 100 | > 100 | > 100 | > 100 | > 100 | – | – | –
O=C(Nc1ccc(Cl)cc1)C1C(=O)C(=O)N(c2ccc(Cl)cc2)C1=O (configuration not stated) | > 100 | > 100 | > 100 | > 100 | > 100 | > 100 | > 100 | – | > 100 | –
Oc1ccc2ccccc2c1N=Nc1cccc2ccccc12 | – | – | – | – | – | – | – | > 100 µM | – | –
